Columns and labels:
Type in all cases: cell-based, human
[1] = tested on: SF3A1; experiment: qPCR splicing analysis, SF3A1 intron retention; settings: for SF3A1 intron 6 retention (level of intron retention): HCT116, 4 h, 20 times GI50, qPCR relative to GAPDH
Method: (§1) HCT116 tumor cells were treated with each analogue at 20 times the G150 value (Table 12) for 4 hours and then cellular RNA was isolated and purified for qPCR. Primers were designed to evaluate intron retention or exon skipping, direct responses to splice modulator treatment. Genes evaluated included those involved in splicing regulation (SF3A1, SF3A3, SF3B1, SF3B2), apoptosis (MCL-1L), protein folding (DNAJB1), and cell cycle regulation (AURKA, PLK-1) relative to the unspliced control GAPDH. For alternative splicing regulator (SF2), primers were designed to evaluate gene expression, which changes in response splice modulator treatment for SF2 relative to the unspliced control GAPDH. (−) denotes untreated cells.
as §1, with “analogues” for “each analogue”, “100 nM (light grey), 250 nM (grey), or 500 nM (black)” for “20 times the G150 value (Table 12)”, “24 h” for “4 hours”, “(MCL-1L), and” for “(MCL-1L),”, “(DNAJB1),” for “(DNAJB1), and cell cycle regulation (AURKA, PLK-1)”, “(—)” for “(−)”
(§2) Next, we turned our efforts to explore the ability of these analogues to modulate splicing. […] We treated cells for 4 h so that we could evaluate early changes in splicing activity, and then cellular RNA was isolated and purified for analyses by qPCR (FIG. 14). Most importantly, none of the concentrations tested led to significant changes in cell viability, ensuring that changes in gene expression were not due to cell death.
(§3) For these studies, we evaluated the expression of genes involved in splicing regulation (SF3A1, SF3A3, SF3B1, SF3B2), apoptosis (MCL-1L), protein folding (DNAJB1), and cell cycle regulation (AURKA, PLK-1) relative to the unspliced control GAPDH. Primers were designed to evaluate intron retention or exon skipping, direct responses to splice modulator treatment. The master splicing regulator alternative splicing factor (SF2) was also evaluated, with the primers for this gene designed to evaluate overall gene expression, which changes in response to splice modulator treatment.
(§4) From this 4 h study (FIG. 14), a small set of analogs (1, 1b, 1g, 1d, 1e, 1i and 1j) were selected to evaluate if effects on splicing when presented for a longer 24 h period. […] Using identical procedures as that used for 4 h, HCT116 cells were treated with three concentrations (100 nM, 250 nM and 500 nM) of each analog for 24 h. Multiple concentrations were used as a means to check further validate the use of the GI50 concentration in our prior study (FIG. 14). As before, none of the concentrations tested led to significant changes in cell viability over the 24-hour time window, ensuring that changes in gene expression were not due to cell death.
(§5) Cells were treated with 1 or 1a-1j in media (McCoy's 5a (Life Technologies) supplemented with 10% FBS, 2 mM L-glutamine, and 100 U mL^−1 of penicillin and 100 μg mL^−1 of streptomycin 0.5% DMSO) for 4 h or 24 h. Untreated cells were considered were used as negative control. Total RNA was isolated using mirVana miRNA isolation kit (Life Technologies). A 1 μg sample of RNA was subjected to DNAseI from a TURBO DNA free kit (Life Technologies). The cDNA was prepared by using SuperScript III reverse transcriptase kit (Life Technologies). […]

[2] = tested on: PLK-1; experiment: qPCR splicing analysis, PLK-1 exon skipping / RNA expression; settings: for PLK-1 RNA expression: HCT116, 24 h, 100, 250, 500 nM
Method: as §1, §2, §3, §4
Cells were treated with 1 or 1a-1j in media (McCoy's 5a (Life Technologies) supplemented with 10% FBS, 2 mM L-glutamine, and 100 U mL^−1 of penicillin and 100 μg mL^−1 of streptomycin 0.5% DMSO) for 4 h or 24 h. Untreated cells were considered were used as negative control. Total RNA was isolated using mirVana miRNA isolation kit (Life Technologies). A 1 μg sample of RNA was subjected to DNAseI from a TURBO DNA free kit (Life Technologies). […] The amount of unspliced RNA for different genes was determined using Power SYBR Green PCR master mix (Applied Biosystems) by qPCR using specific primers for each gene. qPCR using 2.5 μM of each primer was performed on 5 ng of the obtained cDNA. qPCR conditions were as follows: 95° C. for 10 min for one cycle, then 95° C. for 10 min for one cycle, then 95° C. for 30 s, 55° C. for 60 s, 72° C. for 60 s, for 40 cycles using the MXPro. Quantification cycle (Cq) values were identified for each sample, and then RNA levels were calculated using 2-ΔΔCT method. […] Namely, all genes explored in this study were evaluated from the same cell cultures. […]

[3] = tested on: SF3B2; experiment: qPCR splicing analysis, SF3B2 intron retention; settings: for SF3B2 intron retention (level of intron retention): HCT116, 4 h, 20 times GI50, qPCR relative to GAPDH; for SF3B2 intron retention: HCT116, 24 h, 100, 250, 500 nM, compared to 1
Method: as §1
as §1, with “analogues” for “each analogue”, “100 nM (light grey), 250 nM (grey), or 500 nM (black)” for “20 times the G150 value (Table 12)”, “24 h” for “4 hours”, “(MCL-1L), and” for “(MCL-1L),”, “(DNAJB1),” for “(DNAJB1), and cell cycle regulation (AURKA, PLK-1)”, “(—)” for “(−)”
as §2, §3, §4, §5

Row | SMILES | SF3A1 intron retention ([1]; HCT116, 24 h, 100, 250, 500 nM, compared to 1) | PLK-1 RNA expression [2] | SF3B2 intron retention (level of intron retention) [3] | SF3B2 intron retention [3] | effect on exon 3 inclusion in PLK-1 ([2]; HCT116, 4 h, 20 times GI50, qPCR) | SF3A1 intron 6 retention (level of intron retention) [1]
1 | CC[C@H](OC)[C@@H](C)[C@H]1O[C@@H]1[C@@H](O)[C@H](C)/C=C/C=C(\C)[C@H]1OC(=O)C[C@H](O)CC[C@@](C)(O)[C@@H](OC(C)=O)/C=C/[C@@H]1C [Analog 1d, 17S-FD-895] | concentration dependent increased intron retention | decreased effect at reducing | improved efficacy | concentration dependent increased intron retention | – | –
2 | CC[C@H](OC)[C@@H](C)[C@H]1O[C@@H]1[C@@H](O)[C@H](C)/C=C/C=C(\C)[C@H]1OC(=O)C[C@@H](O)CC[C@@](C)(O)[C@@H](OC(C)=O)/C=C/[C@@H]1C [Analog 1g, 3S,17S-FD-895] | – | reduced PLK-1 RNA expression | – | loss in intron retention | most potent effect | –
3 | CC[C@H](OC)[C@@H](C)[C@@H]1O[C@H]1[C@@H](O)[C@H](C)/C=C/C=C(\C)[C@H]1OC(=O)C[C@H](O)CC[C@@](C)(O)[C@@H](OC(C)=O)/C=C/[C@@H]1C [Analog 1i, 17S,18S,19S-FD-895] | – | increased the RNA expression relative to negative controls | improved efficacy | – | – | more effective than 1
4 | CC[C@@H](OC)[C@H](C)[C@H]1O[C@@H]1[C@@H](O)[C@H](C)/C=C/C=C(\C)[C@H]1OC(=O)C[C@H](O)CC[C@@](C)(O)[C@@H](OC(C)=O)/C=C/[C@@H]1C [Analog 1j, 17S,20S,21R-FD-895] | – | – | improved efficacy | – | – | more effective than 1

Reference: patent US12172988B2, “Anticancer and antifungal splice modulators” (priority 2021, dated 2024)
